# Data: article PMC7316994, “In Vitro Pharmacological Profile of a New Small Molecule Bradykinin B2 Receptor Antagonist” (Frontiers in Pharmacology, 2020)
# Columns and labels:
# [1] = target: T1, Prostanoid EP1 (Homo sapiens, UniProt P34995); test: radioligand binding (Table S2); details: [3H] Prostaglandin E2, Human recombinant HEK-293 cells
# T1 construct: host or cells: HEK-293 cells
# [2] = target: T2, Opioid µ (MOP) (Homo sapiens, UniProt P35372); test: radioligand binding (Table S2); details: [3H] DAMGO, Human recombinant HEK-293 cells
# T2 construct: host or cells: HEK-293 cells
# [3] = target: Adenosine A1 (Homo sapiens, UniProt P30542); test: functional assay, impedance, CHO cells (Table S2); assay type: cell-based; details: read-out: % inhibition of reference agonist response @ 10 µM (antagonist effect), CPA (1 nM)
# [4] = target: T3, Melatonin MT2 (ML1B) (Homo sapiens, UniProt P49286); test: radioligand binding (Table S2); details: [125I] 2-iodomelatonin, Human recombinant CHO cells
# T3 construct: host or cells: CHO cells
# [5] = target: T4, Melanocortin MC4 (Homo sapiens, UniProt P32245); test: radioligand binding (Table S2); details: [125I] NDP-α-MSH, Human recombinant CHO cells
# T4 construct: host or cells: CHO cells
# [6] = target: T5, Histamine H4 (Homo sapiens, UniProt Q9H3N8); test: radioligand binding (Table S2); details: [3H] Histamine, Human recombinant HEK-293 cells
# T5 construct: host or cells: HEK-293 cells
# [7] = target: T6, Chemokine CCR1 (Homo sapiens, UniProt P32246); test: radioligand binding (Table S2); details: [125I] MIP-1α, Human recombinant HEK-293 cells
# T6 construct: host or cells: HEK-293 cells
# [8] = system: Potassium channel voltage gated KV channel; assay type: binding; details: [125I] α-dendrotoxin, Rat cerebral cortex
# [9] = target: Nicotinic acetylcholine α1, bungarotoxin (Homo sapiens, UniProt P02708+P07510+Q07001); test: biochemical; assay type: binding; details: read-out: % Inhibition @ 10 µM
# [10] = target: T7, Histamine H2 (Homo sapiens, UniProt P25021); test: radioligand binding (Table S2); details: [125I] APT, Human recombinant CHO cells
# T7 construct: host or cells: CHO cells
# [11] = target: Glucagon (Homo sapiens, UniProt P47871); test: radioligand binding (Table S2); details: read-out: % Inhibition @ 10 µM
# [12] = target: Cannabinoid CB1 (Homo sapiens, UniProt P21554); test: radioligand binding (Table S2); details: read-out: % Inhibition @ 10 µM
# [13] = target: T8, Bombesin BB1 (Homo sapiens, UniProt P28336); test: functional assay, intracellular [Ca2+], CHO cells (Table S2); assay type: cell-based
# T8 construct: host or cells: CHO cells
# [14] = target: PDE4D2 (Homo sapiens, UniProt Q08499); test: enzyme assay (Table S2); assay type: biochemical; details: [3H]cAMP + cAMP (0.5 µM), Scintillation counting
# [15] = system: Calcium Ca2+ channel (L-dihydropyridine site); test: radioligand binding (Table S2); details: [3H] Nitrendepine, Rat cerebral cortex
# [16] = in vitro; details: male, Wistar, rat, microsomes, pH 7.4
# [17] = target: T9, Prostanoid CRTH2 (Homo sapiens, UniProt Q9Y5Y4); test: radioligand binding (Table S2); details: [3H] Prostaglandin D2, Human recombinant CHO-K1 cells
# T9 construct: host or cells: CHO-K1 cells
# [18] = target: T10, Endothelin ETA (Homo sapiens, UniProt P25101); test: radioligand binding (Table S2); details: [125I] Endothelin-1, Human recombinant CHO cells
# T10 construct: host or cells: CHO cells
# [19] = target: T11, C5a (Homo sapiens, UniProt P21730); test: functional assay, cAMP HTRF, HEK-293 cells (Table S2); assay type: cell-based
# T11 construct: expressed in transfected cells; host or cells: HEK-293 cells
# [20] = system: Potassium channel (Ca activated) SKCa channel; test: radioligand binding (Table S2); details: [125I] Apamin, Rat cerebral cortex
# [21] = target: T12, Benzodiazepine BZD (peripheral) (Rattus norvegicus, UniProt P16257); test: radioligand binding (Table S2)
# T12 construct: tissue Eurofins; host or cells: rat heart
# [22] = target: T13, Melanocortin MC5 (Homo sapiens, UniProt P33032); test: radioligand binding (Table S2); details: [125I] NDP-α-MSH, Human recombinant CHO cells
# T13 construct: host or cells: CHO cells
# [23] = target: T14, Serotonin 5-HT2A (Homo sapiens, UniProt P28223); test: radioligand binding (Table S2); details: [125I] (±)DOI, Human recombinant HEK-293 cells
# T14 construct: host or cells: HEK-293 cells
# T14 sequence (P28223 whole entry): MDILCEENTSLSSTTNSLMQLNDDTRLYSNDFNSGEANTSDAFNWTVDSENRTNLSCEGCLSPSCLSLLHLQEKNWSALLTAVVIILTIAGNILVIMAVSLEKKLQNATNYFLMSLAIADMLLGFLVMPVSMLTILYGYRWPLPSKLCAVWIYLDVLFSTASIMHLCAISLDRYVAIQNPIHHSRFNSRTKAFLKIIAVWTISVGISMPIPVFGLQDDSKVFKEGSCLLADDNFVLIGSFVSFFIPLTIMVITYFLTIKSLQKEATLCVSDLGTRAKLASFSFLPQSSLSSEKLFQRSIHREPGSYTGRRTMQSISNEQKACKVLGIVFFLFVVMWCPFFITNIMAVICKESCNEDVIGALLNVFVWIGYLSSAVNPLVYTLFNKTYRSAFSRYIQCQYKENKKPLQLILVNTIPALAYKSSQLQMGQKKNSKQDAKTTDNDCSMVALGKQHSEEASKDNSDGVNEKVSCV
# T11 sequence (P21730 whole entry): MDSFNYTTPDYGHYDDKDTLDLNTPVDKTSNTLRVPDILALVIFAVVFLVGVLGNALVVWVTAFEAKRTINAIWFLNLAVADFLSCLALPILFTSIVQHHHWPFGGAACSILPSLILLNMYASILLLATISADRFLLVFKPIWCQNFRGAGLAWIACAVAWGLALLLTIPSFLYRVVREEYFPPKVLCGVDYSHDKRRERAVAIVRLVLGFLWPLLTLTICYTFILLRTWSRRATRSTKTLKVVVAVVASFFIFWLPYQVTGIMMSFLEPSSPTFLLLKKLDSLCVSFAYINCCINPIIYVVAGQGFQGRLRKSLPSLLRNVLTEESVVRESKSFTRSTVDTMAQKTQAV
# T8 sequence (P28336 whole entry): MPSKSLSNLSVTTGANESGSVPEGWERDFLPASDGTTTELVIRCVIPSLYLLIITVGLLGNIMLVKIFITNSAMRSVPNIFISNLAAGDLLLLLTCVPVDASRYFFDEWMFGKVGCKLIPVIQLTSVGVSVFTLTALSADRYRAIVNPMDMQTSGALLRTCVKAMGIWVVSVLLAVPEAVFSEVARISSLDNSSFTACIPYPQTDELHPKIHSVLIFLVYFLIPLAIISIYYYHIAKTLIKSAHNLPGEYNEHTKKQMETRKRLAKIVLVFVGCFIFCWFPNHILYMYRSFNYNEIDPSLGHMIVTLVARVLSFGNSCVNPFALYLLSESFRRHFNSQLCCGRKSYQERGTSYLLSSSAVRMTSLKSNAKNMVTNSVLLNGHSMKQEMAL
# T1 sequence (P34995 whole entry): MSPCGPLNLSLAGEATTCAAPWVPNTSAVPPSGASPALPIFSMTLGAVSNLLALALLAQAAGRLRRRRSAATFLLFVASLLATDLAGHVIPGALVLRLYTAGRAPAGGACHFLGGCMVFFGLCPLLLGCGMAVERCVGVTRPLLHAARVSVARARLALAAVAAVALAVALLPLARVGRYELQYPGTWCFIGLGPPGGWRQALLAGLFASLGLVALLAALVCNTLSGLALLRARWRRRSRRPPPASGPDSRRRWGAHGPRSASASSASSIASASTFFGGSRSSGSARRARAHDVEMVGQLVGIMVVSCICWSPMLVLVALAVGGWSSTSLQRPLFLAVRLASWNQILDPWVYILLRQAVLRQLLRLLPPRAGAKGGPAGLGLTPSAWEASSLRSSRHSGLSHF
# T5 sequence (Q9H3N8 whole entry): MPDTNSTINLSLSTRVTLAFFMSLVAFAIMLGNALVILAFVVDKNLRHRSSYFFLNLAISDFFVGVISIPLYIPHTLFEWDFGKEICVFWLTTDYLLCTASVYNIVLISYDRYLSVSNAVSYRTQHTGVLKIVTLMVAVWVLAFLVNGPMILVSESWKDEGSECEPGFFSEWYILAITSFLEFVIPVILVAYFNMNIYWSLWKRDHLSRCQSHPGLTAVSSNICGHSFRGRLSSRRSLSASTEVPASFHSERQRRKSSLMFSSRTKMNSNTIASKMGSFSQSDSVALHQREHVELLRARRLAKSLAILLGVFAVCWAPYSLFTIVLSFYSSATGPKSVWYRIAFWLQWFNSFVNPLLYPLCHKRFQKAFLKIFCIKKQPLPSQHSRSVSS
# Chain of Cannabinoid CB1 (P21554 whole entry): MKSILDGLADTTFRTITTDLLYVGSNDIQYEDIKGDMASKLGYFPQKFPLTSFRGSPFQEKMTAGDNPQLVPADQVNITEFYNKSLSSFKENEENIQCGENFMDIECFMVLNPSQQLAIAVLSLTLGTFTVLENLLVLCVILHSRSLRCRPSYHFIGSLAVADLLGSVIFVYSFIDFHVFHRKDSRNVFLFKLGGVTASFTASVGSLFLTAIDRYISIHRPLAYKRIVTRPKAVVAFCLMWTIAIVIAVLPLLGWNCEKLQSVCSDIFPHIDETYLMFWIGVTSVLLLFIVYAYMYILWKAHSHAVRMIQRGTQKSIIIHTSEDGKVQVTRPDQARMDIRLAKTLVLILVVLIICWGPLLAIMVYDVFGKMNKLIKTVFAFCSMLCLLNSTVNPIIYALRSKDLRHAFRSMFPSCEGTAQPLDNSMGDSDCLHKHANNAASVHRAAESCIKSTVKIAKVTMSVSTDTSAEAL
# T10 sequence (P25101 21-427): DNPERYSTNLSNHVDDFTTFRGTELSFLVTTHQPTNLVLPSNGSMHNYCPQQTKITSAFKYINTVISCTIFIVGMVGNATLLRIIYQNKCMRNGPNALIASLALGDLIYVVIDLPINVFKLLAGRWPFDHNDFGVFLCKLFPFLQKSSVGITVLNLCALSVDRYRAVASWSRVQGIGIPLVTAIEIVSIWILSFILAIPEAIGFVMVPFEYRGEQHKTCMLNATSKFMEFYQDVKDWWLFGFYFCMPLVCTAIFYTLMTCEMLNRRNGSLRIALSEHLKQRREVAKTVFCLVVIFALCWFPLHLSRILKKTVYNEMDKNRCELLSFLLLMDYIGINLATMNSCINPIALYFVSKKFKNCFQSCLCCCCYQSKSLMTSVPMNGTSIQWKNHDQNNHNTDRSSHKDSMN
# T3 sequence (P49286 whole entry): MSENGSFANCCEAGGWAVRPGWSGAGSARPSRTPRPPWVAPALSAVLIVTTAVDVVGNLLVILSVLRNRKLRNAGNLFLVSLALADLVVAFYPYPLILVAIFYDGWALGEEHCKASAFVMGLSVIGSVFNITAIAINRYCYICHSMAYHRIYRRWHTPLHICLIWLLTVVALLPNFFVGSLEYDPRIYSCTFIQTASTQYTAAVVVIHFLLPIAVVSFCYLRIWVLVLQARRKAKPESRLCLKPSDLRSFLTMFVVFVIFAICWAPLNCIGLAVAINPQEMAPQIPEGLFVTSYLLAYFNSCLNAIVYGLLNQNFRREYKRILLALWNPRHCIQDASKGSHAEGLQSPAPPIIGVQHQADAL
# T6 sequence (P32246 whole entry): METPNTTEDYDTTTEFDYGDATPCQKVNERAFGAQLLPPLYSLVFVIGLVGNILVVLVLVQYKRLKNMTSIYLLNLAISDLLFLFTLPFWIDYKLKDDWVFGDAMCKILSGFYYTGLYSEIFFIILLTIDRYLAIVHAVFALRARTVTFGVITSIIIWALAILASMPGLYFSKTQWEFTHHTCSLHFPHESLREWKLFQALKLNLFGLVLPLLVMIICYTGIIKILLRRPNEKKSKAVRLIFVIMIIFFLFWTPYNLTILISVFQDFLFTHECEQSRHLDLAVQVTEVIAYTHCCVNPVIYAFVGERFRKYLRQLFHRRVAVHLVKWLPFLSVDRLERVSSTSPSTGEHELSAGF
# T2 sequence (P35372 whole entry): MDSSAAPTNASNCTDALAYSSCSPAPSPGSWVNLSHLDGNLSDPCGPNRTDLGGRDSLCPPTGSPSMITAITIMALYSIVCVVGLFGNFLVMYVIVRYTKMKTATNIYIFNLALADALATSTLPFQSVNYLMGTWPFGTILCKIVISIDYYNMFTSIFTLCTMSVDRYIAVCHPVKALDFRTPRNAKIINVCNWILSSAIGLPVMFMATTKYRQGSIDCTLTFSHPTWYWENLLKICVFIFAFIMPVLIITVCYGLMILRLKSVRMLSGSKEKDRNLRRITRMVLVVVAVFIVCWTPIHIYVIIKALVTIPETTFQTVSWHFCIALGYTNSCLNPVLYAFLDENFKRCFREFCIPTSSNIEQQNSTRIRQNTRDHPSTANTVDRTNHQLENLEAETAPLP
# T9 sequence (Q9Y5Y4 whole entry): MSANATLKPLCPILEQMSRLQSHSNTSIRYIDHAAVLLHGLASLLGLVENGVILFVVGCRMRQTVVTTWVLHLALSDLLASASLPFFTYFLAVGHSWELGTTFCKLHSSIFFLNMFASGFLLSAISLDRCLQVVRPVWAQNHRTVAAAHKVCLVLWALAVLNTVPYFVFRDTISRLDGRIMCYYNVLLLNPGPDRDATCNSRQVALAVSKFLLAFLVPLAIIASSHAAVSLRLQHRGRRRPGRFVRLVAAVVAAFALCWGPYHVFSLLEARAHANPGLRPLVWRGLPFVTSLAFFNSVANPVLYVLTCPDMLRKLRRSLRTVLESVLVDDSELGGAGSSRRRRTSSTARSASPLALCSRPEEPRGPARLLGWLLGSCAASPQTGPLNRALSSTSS
# T4 sequence (P32245 whole entry): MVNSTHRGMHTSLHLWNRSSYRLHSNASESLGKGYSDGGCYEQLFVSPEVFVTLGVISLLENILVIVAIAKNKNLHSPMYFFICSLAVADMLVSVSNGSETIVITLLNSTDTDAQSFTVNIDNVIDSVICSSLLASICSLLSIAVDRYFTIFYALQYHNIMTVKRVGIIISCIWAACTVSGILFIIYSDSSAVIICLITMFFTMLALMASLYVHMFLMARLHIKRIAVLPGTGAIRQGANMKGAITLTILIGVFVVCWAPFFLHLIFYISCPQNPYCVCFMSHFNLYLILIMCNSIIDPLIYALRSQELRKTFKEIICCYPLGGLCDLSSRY
smiles,measurement,setting,value
"Cc1cc(-c2ncnn2C)c2cccc(OCc3c(Cl)cc(F)cc3[C@H](C)NC(=O)COC(F)F)c2n1 [Compound 3, (S)-N-(1-(3-chloro-5-fluoro-2-((2-methyl-4-(1-methyl-1H-1,2,4-triazol-5-yl)quinolin-8-yloxy)methyl)phenyl)ethyl)-2-(difluoromethoxy)acetamide]",inhibition at 10 µM,[1],80%
same,inhibition at 10 µM,[2],13.6%
same,inhibition at 10 µM,[3],-2.3%
same,inhibition at 10 µM,[4],4.8%
same,inhibition at 10 µM,[5],7.1%
same,inhibition at 10 µM,[6],-2.8%
same,inhibition at 10 µM,[7],-9.6%
same,% Inhibition @ 10 µM,[8],2.3%
same,inhibition at 10 µM,[9],-1%
same,inhibition at 10 µM,[10],-26.5%
same,inhibition at 10 µM,[11],-0.6%
same,inhibition at 10 µM,[12],-3%
same,inhibition at 10 µM,"[13]; CHO, read-out: % inhibition of reference agonist response @ 10 µM (antagonist effect), Neuromedin B (0.1 nM)",28.5%
same,% of reference agonist response @ 10 µM (agonist effect),[13]; reference neuromedin B (10 nM),4.4%
same,inhibition at 10 µM,[14],4.4%
same,% Inhibition @ 10 µM,[15],7.3%
same,microsomal CLint at 1 µM,[16],27.9 µL/min/mg
same,inhibition at 10 µM,[17],3%
same,inhibition at 10 µM,[18],-2.1%
same,inhibition at 10 µM,"[19]; HEK293, read-out: % inhibition of reference agonist response @ 10 µM (antagonist effect), hC5a (10 nM)",-0.2%
same,% of reference agonist response @ 10 µM (agonist effect),[19]; reference hC5a (100 nM),-18.1%
same,% Inhibition @ 10 µM,[20],6.3%
same,inhibition at 10 µM,[21],42.3%
same,inhibition at 10 µM,[22],-9.6%
same,inhibition at 10 µM,[23],-3.8%
